Read-outs that look alike come from different tables or passages of the source.
How the values were obtained:
[1] = test system: cell line that is resistant to cytarabine; settings: cited from earlier work
colon cancer = settings: model of colon cancer; cited from earlier work
[2] = test system: patients with a variety of cancers; settings: phase I, humans; cited from earlier work
AML cell lines = experiment: Combination of CNDAC with hypomethylating agents in AML cell lines; type: cell-based; settings: more apparent if cells are treated with hypomethylating agents first
Description: Previous studies by the applicant have shown that in AML cell lines, the active metabolite of sapacitabine, CNDAC, is synergistic with hypomethylating agents and the synergy is more apparent if cells are treated with hypomethylating agents first. The present invention relates to the identification of new and previously undefined subgroups of AML patients for which treatment with an alternating regimen of sapacitabine and decitabine is particularly effective.

[3] = Antecedent MDS/MPN No and WBC ≥10,000
[4] = Antecedent MDS/MPN Yes and WBC <10,000
[5] = SWOG Not unfavourable and WBC <10,000
[6] = SWOG Unfavourable and WBC ≥10,000
[7] = all randomized patients (n=241 per arm)

Description for AML patients: For 482 patients randomized to receive decitabine/sapacitabine (n=241) vs. decitabine only (n=241), randomization was stratified by the presence of antecedent MDS or MPN, peripheral white blood cell count (WBC <10,000 vs. ≥10,000) and bone marrow blast percentage (≥50% vs. <50%).

Nc1ccn([C@@H]2O[C@H](CO)[C@@H](O)[C@@H]2O)c(=O)n1 [cytarabine]
IC50 ([1]; after 5-azacitidine (dCK upregulation)): 0.55 µM | IC50 ([1]; before 5-azacitidine): 12.5 µM

Nc1ncn([C@H]2C[C@H](O)[C@@H](CO)O2)c(=O)n1 [Decitabine, 4-amino-1-(2-deoxy-β-D-erythro-pentofuranosyl)-1,3,5-triazin-2(1H)-one]
1-year survival (AML patients; [3]): 36.7% | CR rate (AML patients; [3]): 18.4% | Median overall survival (AML patients; [3]): 5.5 months | 1-year survival (AML patients; [4]): 27.5% | CR rate (AML patients; [4]): 2.5% | Median overall survival (AML patients; [4]): 4.9 months | 1-year survival (AML patients; Antecedent MDS/MPN: No): 35.5% | CR median duration (AML patients; Antecedent MDS/MPN: No): 10.4 months | CR rate (AML patients; Antecedent MDS/MPN: No): 12.9% | Median overall survival (AML patients; Antecedent MDS/MPN: No): 6.7 months | 1-year survival (AML patients; Antecedent MDS/MPN: Yes): 32.9% | CR median duration (AML patients; Antecedent MDS/MPN: Yes): 7.1 months | CR rate (AML patients; Antecedent MDS/MPN: Yes): 5.7% | Median overall survival (AML patients; Antecedent MDS/MPN: Yes): 5.0 months | 1-year survival (AML patients; [5]): 31.8% | CR rate (AML patients; [5]): 5.7% | Median overall survival (AML patients; [5]): 5.6 months | 1-year survival (AML patients; [6]): 30.0% | CR rate (AML patients; [6]): 0% | Median overall survival (AML patients; [6]): 3.0 months | 1-year survival (AML patients; SWOG category Not Unfavourable): 35.9% | CR rate (AML patients; SWOG category Not Unfavourable): 11.6% | Median overall survival (AML patients; SWOG category Not Unfavourable): 5.7 months | 1-year survival (AML patients; SWOG category Unfavourable): 33.0% | CR rate (AML patients; SWOG category Unfavourable): 9.6% | Median overall survival (AML patients; SWOG category Unfavourable): 5.7 months | Patients aged 80 and over, median overall survival (AML patients; aged 80 and over, <10,000 WBC): 4.2 months | Median overall survival (AML patients; [7]): 5.7 months | patients achieved CR (AML patients; [7]): 10.8% | 1-year survival (AML patients; patients with <10,000 WBC): 32.9% | CR median duration (AML patients; patients with <10,000 WBC): 10.4 months | CR rate (AML patients; patients with <10,000 WBC): 8.6% | Median overall survival (AML patients; patients with <10,000 WBC): 5.8 months | 1-year survival (AML patients; patients with ≥10,000 WBC): 38.5% | CR median duration (AML patients; patients with ≥10,000 WBC): 10.1 months | CR rate (AML patients; patients with ≥10,000 WBC): 15.2% | Median overall survival (AML patients; patients with ≥10,000 WBC): 5.5 months

CCCCCCCCCCCCCCCC(=O)Nc1ccn([C@@H]2O[C@H](CO)[C@@H](O)[C@@H]2C#N)c(=O)n1 [Sapacitabine, 1-(2-C-cyano-2-deoxy-β-D-arabino-pentofuranosyl)-N^4-palmitoyl cytosine]
anticancer activity (colon cancer): strong anticancer activity | increasing survival and preventing spread of colon cancer metastases to the liver, compared with gemcitabine or 5-FU (colon cancer): superior to either gemcitabine or 5-FU | dose-limiting toxicity [2]: myelosuppression | tolerability [2]: well tolerated

N#C[C@H]1[C@H](O)[C@@H](CO)O[C@H]1n1ccc(N)nc1=O [CNDAC, 2′-C-cyano-2′-deoxy-1-β-D-arabino-pentofuranosyl cytosine]
interaction with hypomethylating agents (AML cell lines): synergistic
